Reference: patent publication US7205295B2, “Benzoxazin-3-ones and derivatives thereof as therapeutic agents” (Warner-Lambert Company LLC, priority 2002, dated 2007)

Target: T1, PI3Kγ (p101/p110γ protein) (Homo sapiens, UniProt P48736)
T1 construct: HA; made in house; host or cells: Spodoptera frugiperda (Sf9) cells, baculovirus co-infection
Assay: PI3Kγ In Vitro Kinase Assay
Type: biochemical
Conditions: purified recombinant p101/p110γ with G protein β1/γ2 subunits; 20 μM ATP, 25 μM PIP2; 20 minutes at room temperature
Method in brief: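 Reactions ran 20 min at room temperature, pairing lipid micelles (25 μM PIP2, 300 μM PE, 0.02% Na-cholate, 10 mM MgCl2) with 20 μM ATP including [γ-32P]ATP. The enzyme was recombinant p101/p110γ (2.7 nM) with G protein β1/γ2 (57.7 nM). [32P]PIP3 product was stopped with H3PO4, filtered and scintillation counted.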

T1 sequence (P48736 whole entry, species assumed): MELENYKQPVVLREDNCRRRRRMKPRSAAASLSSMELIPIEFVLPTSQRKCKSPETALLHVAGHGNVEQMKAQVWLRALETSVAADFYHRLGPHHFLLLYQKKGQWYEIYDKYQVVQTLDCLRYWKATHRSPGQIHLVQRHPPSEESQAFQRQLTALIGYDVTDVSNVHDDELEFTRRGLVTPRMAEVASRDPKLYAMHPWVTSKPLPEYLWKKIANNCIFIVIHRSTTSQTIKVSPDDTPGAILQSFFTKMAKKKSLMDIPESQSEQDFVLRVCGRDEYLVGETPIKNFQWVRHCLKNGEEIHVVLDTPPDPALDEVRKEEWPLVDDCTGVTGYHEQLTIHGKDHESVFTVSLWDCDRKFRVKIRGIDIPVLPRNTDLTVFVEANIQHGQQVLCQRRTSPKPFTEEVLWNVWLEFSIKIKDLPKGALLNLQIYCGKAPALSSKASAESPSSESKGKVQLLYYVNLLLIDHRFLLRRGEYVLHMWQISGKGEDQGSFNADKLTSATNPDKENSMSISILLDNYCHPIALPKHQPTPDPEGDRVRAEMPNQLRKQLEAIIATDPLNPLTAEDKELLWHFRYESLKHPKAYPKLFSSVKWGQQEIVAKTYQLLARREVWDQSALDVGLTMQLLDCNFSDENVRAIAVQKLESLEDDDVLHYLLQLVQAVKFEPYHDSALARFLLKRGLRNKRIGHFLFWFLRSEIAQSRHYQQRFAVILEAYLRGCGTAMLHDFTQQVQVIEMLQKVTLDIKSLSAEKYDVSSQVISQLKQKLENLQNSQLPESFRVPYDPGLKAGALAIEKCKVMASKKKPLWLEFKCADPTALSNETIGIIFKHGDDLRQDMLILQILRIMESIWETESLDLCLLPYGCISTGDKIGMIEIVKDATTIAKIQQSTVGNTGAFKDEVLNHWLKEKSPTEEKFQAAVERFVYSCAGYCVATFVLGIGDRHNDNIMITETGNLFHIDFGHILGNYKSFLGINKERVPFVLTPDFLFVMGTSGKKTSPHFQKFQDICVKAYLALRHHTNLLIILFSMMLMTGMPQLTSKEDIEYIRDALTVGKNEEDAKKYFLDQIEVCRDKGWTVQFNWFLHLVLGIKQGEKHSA
T1 sequence (Q8WYR1 whole entry partner, species assumed): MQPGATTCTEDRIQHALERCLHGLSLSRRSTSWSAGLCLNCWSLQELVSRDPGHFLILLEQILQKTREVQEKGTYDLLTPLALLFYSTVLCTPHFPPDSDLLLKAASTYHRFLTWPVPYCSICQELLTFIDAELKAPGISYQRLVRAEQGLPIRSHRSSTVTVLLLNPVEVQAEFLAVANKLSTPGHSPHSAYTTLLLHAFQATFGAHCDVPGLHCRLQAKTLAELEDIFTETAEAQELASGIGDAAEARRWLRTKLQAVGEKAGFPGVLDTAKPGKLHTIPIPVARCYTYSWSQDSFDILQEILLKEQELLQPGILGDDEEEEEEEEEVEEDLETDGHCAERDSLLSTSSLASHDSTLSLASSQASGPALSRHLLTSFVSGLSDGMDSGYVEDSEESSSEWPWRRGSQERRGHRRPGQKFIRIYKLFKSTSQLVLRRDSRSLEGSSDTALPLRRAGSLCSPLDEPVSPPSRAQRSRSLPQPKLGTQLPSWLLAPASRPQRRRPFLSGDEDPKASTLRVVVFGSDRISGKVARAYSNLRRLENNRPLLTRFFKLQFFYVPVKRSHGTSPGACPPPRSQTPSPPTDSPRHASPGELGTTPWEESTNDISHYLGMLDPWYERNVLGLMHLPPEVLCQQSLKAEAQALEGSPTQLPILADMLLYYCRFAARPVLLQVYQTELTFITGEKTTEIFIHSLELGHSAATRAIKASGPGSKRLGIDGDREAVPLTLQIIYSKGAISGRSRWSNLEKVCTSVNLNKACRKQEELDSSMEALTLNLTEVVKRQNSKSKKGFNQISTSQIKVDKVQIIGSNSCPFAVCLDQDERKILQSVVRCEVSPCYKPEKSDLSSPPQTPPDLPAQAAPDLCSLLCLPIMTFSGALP

IC50 [nM] | SMILES
16 | CN1CCN(C(=O)c2cc(CN3C(=O)COc4ccc(/C=C5\SC(=S)NC5=O)cc43)cc(C(C)(C)C)c2)CC1 [Example 279, 4-[3-tert-Butyl-5-(4-methyl-piperazine-1-carbonyl)-benzyl]-6-[4-oxo-2-thioxo-thiazolidin-(5Z)-ylidenemethyl]-4H-benzo[1,4]oxazin-3-one]
20 | CN(C)S(=O)(=O)c1cccc(CN2C(=O)COc3ccc(C=C4SC(=O)NC4=O)cc32)c1 [Example 256, 3-[6-(2,4-Dioxo-thiazolidin-5-ylidenemethyl)-3-oxo-2,3-dihydro-1,4-benzoxazin-4-ylmethyl]-N,N-dimethyl-benzenesulfonamide]
25 | Cc1cc(CN2CCN(C)CC2)cc(CN2C(=O)COc3ccc(C=C4SC(=O)NC4=O)cc32)c1 [Example 251, 5-{4-[3-Methyl-5-(4-methyl-piperazin-1-ylmethyl)-benzyl]-3-oxo-3,4-dihydro-2H-1,4-benzoxazin-6-ylmethylene}-thiazolidine-2,4-dione]
1620 | C[C@@H]1Oc2ccc(C=C3SC(=S)NC3=O)cc2N(Cc2cc(C(C)(C)C)cc(C(C)(C)C)c2)C1=O [Example 37, (S)-4-(3,5-Di-tert-butyl-benzyl)-2-methyl-6-(4-oxo-2-thioxo-thiazolidin-5-ylidenemethyl)-4H-1,4-benzoxazin-3-one]
48 | O=C1NC(=O)C(=Cc2ccc3c(c2)N(Cc2ccncc2)C(=O)CO3)S1 [Example 227, 5-(3-Oxo-4-pyridin-4-ylmethyl-3,4-dihydro-2H-1,4-benzoxazin-6-ylmethylene)-thiazolidine-2,4-dione]
185 | CC(C)N(CCCN1C(=O)COc2c(F)cc(C=C3SC(=S)NC3=O)cc21)C(C)C [Example 245, 4-(3-Diisopropylamino-propyl)-8-fluoro-6-(4-oxo-2-thioxo-thiazolidin-5-ylidenemethyl)-4H-benzo[1,4]oxazin-3-one]
25 | O=C1NC(=S)SC1=Cc1ccc2c(c1)N(CCc1ccccc1)C(=O)CO2 [Example 5, 6-(4-Oxo-2-thioxo-thiazolidin-5-ylidenemethyl)-4-phenethyl-4H-1,4-benzoxazin-3-one]
13 | O=C1NC(=S)SC1=Cc1ccc2c(c1)N(Cc1ccc(S(=O)(=O)N3CCOCC3)cc1)C(=O)CO2 [Example 259, 4-[4-(Morpholine-4-sulfonyl)-benzyl]-6-(4-oxo-2-thioxo-thiazolidin-5-ylidenemethyl)-4H-1,4-benzoxazin-3-one]
21 | O=C1NC(=S)SC1=Cc1ccc2c(c1)N(Cc1cccc(C(F)(F)F)c1)C(=O)CO2 [Example 157, 6-(4-Oxo-2-thioxo-thiazolidin-5-ylidenemethyl)-4-(3-trifluoromethyl-benzyl)-4H-1,4-benzoxazin-3-one]
9 | O=C1NC(=S)OC1=Cc1ccc2c(c1)N(Cc1ccc(Cl)c(Cl)c1)C(=O)CS2 [Example 199, 4-(3,4-Dichlorobenzyl)-6-(4-oxo-2-thioxo-oxazolidin-5-ylidenemethyl)-4H-benzo[1,4]thiazin-3-one]
52 | CCOC(=O)N1CCN(Cc2ccc(CN3C(=O)COc4ccc(C=C5SC(=S)NC5=O)cc43)cc2)CC1 [Example 241, 4-{4-[3-Oxo-6-(4-oxo-2-thioxo-thiazolidin-5-ylidenemethyl)-2,3-dihydro-benzo[1,4]oxazin-4-ylmethyl]-benzyl}-piperazine-1-carboxylic acid ethyl ester]
895 | Cc1cc(C=C2SC(=S)NC2=O)cc2c1OCC(=O)N2Cc1cc(C(C)(C)C)nc(C(C)(C)C)c1 [Example 221, 4-(2,6-Di-tert-butyl-pyridin-4-ylmethyl)-8-methyl-6-(4-oxo-2-thioxo-thiazolidin-5-ylidenemethyl)-4H-1,4-benzoxazin-3-one]
180 | O=C1NC(=S)SC1=Cc1cc(F)c2c(c1)N(CCCN1CCCCC1)C(=O)CO2 [Example 243]
43 | O=C1COc2c(F)cc(C=C3SC(=S)NC3=O)cc2N1 [Example 53, 8-Fluoro-6-(4-oxo-2-thioxo-thiazolidin-5-ylidenemethyl)-4H-1,4-benzoxazin-3-one]
1030 | C[C@@H]1Oc2ccc(C=C3SC(=S)NC3=O)cc2N(Cc2ccc3ccccc3c2)C1=O [Example 152, (S)-2-Methyl-4-naphthalen-2-ylmethyl-6-(4-oxo-2-thioxo-thiazolidin-5-ylidenemethyl)-4H-benzo[1,4]oxazin-3-one]
2100 | CC1CC(C)CN(C(=O)CN2C(=O)COc3ccc(C=C4SC(=S)NC4=O)cc32)C1 (stereo not drawn) [Example 213, 4-[2-(3,5-Dimethyl-piperidin-1-yl)-2-oxo-ethyl]-6-(4-oxo-2-thioxo-thiazolidin-5-ylidenemethyl)-4H-1,4-benzoxazin-3-one]
4 | CN(C)S(=O)(=O)c1ccc(CN2C(=O)COc3ccc(/C=C4\SC(=S)NC4=O)cc32)cc1 [Example 264, N,N-Dimethyl-4-{3-oxo-6-[4-oxo-2-thioxo-thiazolidin-(5Z)-ylidenemethyl]-2,3-dihydro-benzo[1,4]oxazin-4-ylmethyl}-benzenesulfonamide]

IC50 [nM] | SMILES
5 | CC(C)(C)c1cc(CN2C(=O)COc3c(F)cc(CC4SC(=S)NC4=O)cc32)cc(C(C)(C)O)c1 (stereo not drawn) [Example 236, 4-[3-tert-Butyl-5(1-hydroxy-1-methyl-ethyl)-benzyl]-8-fluoro-6-(4-oxo-2-thioxo-thazolidin-5-ylmethyl)-4H-benzo[1,4]oxazin-3-one]
26 | O=C1NC(=S)OC1=Cc1ccc2c(c1)N(Cc1ccc(Cl)c(C(F)(F)F)c1)C(=O)CO2 [Example 196, 4-(4-Chloro-3-trifluoromethyl-benzyl)-6-(4-oxo-2-thioxo-oxazolidin-5-ylidenemethyl)-4H-1,4-benzoxazin-3-one]
7 | O=C1NC(=S)SC1=Cc1ccc2c(c1)N(Cc1cccs1)C(=O)CO2 [Example 333, 6-(4-Oxo-2-thioxo-thiazolidin-5-ylidenemethyl)-4-thiophen-2-ylmethyl-4H-1,4-benzoxazin-3-one]
19 | Cc1cc(CN2C(=O)COc3ccc(C=C4SC(=S)NC4=O)cc32)cc(-c2nccs2)c1 [Example 119, 4-(3-Methyl-5-thiazol-2-yl-benzyl)-6-(4-oxo-2-thioxo-thiazolidin-5-ylidenemethyl)-4H-benzo[1,4]oxzain-3-one]
18 | Cc1cc(CN2C(=O)COc3c(F)cc(C=C4SC(=S)NC4=O)cc32)nn1C(C)(C)C [Example 325, 4-(1-tert-Butyl-5-methyl-1H-pyrazol-3-ylmethyl)-8-flouro-6-(4-oxo-2-thioxo-thiazolidin-5-ylidenemethyl)-4H-benzo[1,4]oxazin-3-one]
10 | Cc1cc(C)cc(CN2C(=O)COc3ccc(C=C4SC(=S)NC4=O)cc32)c1 [Example 181, 4-(3,5-Dimethyl-benzyl)-6-(4-oxo-2-thioxo-thiazolidin-5-ylidenemethyl)-4H-1,4-benzoxazin-3-one]
5 | CC(C)(C)c1cc(CN2CCOCC2)cc(CN2C(=O)COc3ccc(/C=C4\SC(=O)NC4=O)cc32)c1 [Example 277, 5-[1-[4-(3-tert-Butyl-5-morpholin-4-ylmethyl-benzyl)-3-oxo-3,4-dihydro-2H-benzo[1,4]oxazin-6-yl]-meth-(Z)-ylidene]-thiazolidine-2,4-dione]
9 | COc1cc(CN2C(=O)COc3ccc(C=C4SC(=S)NC4=O)cc32)cc(OC)c1 [Example 26, 4-(3,5-Dimethoxy-benzyl)-6-(4-oxo-2-thioxo-thiazolidin-5-ylidenemethyl)-4H-1,4-benzoxazin-3-one]
7 | O=C1NC(=S)SC1=Cc1ccc2c(c1)N(Cc1ccc(Cl)cc1)C(=O)CO2 [Example 179, 4-(4-Chloro-benzyl)-6-(4-oxo-2-thioxo-thiazolidin-5-ylidenemethyl)-4H-1,4-benzoxazin-3-one]
175 | CC(C)(C)C1CC(CN2C(=O)COc3ccc(C=C4SC(=S)NC4=O)cc32)CC(C(C)(C)C)C1 (stereo not drawn) [Example 250, 4-(3,5-Di-tert-butyl-cyclohexylmethyl)-6-(4-oxo-2-thioxo-thiazolidin-5-ylidenemethyl)-4H-1,4-benzoxazin-3-one]
121 | O=C1NC(=S)S/C1=C\c1cc(F)c2c(c1)N(Cc1cc(C(F)(F)F)cc(C(F)(F)F)c1)C(=O)CO2 [Example 273, 4-(3,5-Bis-trifluoromethyl-benzyl)-8-fluoro-6-[4-oxo-2-thioxo-thiazolidin-(5Z)-ylidenemethyl]-4H-benzo[1,4]oxazin-3-one]
180 | Cn1nc(C(C)(C)C)cc1CN1C(=O)COc2ccc(C=C3SC(=S)NC3=O)cc21 [Example 128, 4-(5-tert-Butyl-2-methyl-2H-pyrazol-3-ylmethyl)-6-(4-oxo-2-thioxo-thiazolidin-5-ylidenemethyl)-4H-benzo[1,4]oxazin-3-one]
640 | O=C1NC(=S)SC1=Cc1cnc2c(c1)N(Cc1ccccc1)C(=O)CO2 [Example 189, 1-Benzyl-7-(4-oxo-2-thioxo-thiazolidin-5-ylidenemethyl)-1H-pyrido[2,3-b][1,4]oxazin-2-one; compound with ethane-1,2-diamine]
3 | Cc1cc(C)cc(CN2C(=O)COc3c(C)cc(C=C4SC(=S)NC4=O)cc32)c1 [Example 28, 4-(3,5-Dimethyl-benzyl)-8-methyl-6-(4-oxo-2-thioxo-thiazolidin-5-ylidenemethyl)-4H-1,4-benzoxazin-3-one]
10 | CC(C)(C)c1cc(CO)cc(CN2C(=O)COc3c(F)cc(/C=C4\SC(=S)NC4=O)cc32)c1 [Example 284, 4-(3-tert-Butyl-5-hydroxymethyl-benzyl)-8-fluoro-6-[4-oxo-2-thioxo-thiazolidin-(5Z)-ylidenemethyl]-4H-benzo[1,4]oxazin-3-one]
17 | O=C1NC(=S)SC1=Cc1cc(Cl)c2c(c1)N(Cc1ccc(CN3CCOCC3)cc1)C(=O)CO2 [Example 80, 8-Chloro-4-(4-morpholin-4-ylmethyl-benzyl)-6-(4-oxo-2-thioxo-thiazolidin-5-ylidenemethyl)-4H-1,4-benzoxazin-3-one]
